pIC50: −log10 of the molar value. Where a name gives a salt, the structure may show the parent alone. Read-outs that look alike come from different tables or passages of the source.
Tests used:
[1] = biological target: T1, Na^+ /H^+ exchange transport (rat platelets) (Rattus norvegicus, UniProt P26431); assay: Inhibition studies on Na^+ /H^+ exchange transport: swelling of rat platelets induced by sodium propionate; assay type: cell-based, rat (Wistar); settings: rat platelet swelling, sodium propionate buffer pH 6.7, 20 seconds; 300 μM amiloride = 100% inhibition; read-out: IC5O value (inhibitory actions of test compounds on Na^+ /H^+ exchange transport)
T1 construct: the thus collected supernatant was used as platelet rich plasma; endogenous in cells; host or cells: platelets (platelet rich plasma) of Wistar rat
Method: The Na^+ /H^+ exchange transport inhibitory activity was measured in accordance with the method of Scholz et al. [Br. J. Pharmacol., 109, 562 (1993)], using the swelling of rat platelets induced by sodium propionate as an index.
Under ether anesthesia, blood sample (8 ml) was collected from the abdominal aorta of Wistar rat and mixed with 1 ml of acid citrate dextrose as an anticoagulant. The resulting mixture was immediately centrifuged at 90×g for 10 minutes, and the thus collected supernatant was used as platelet rich plasma. Next, the thus prepared platelet rich plasma (10×10^6 platelets/50 μl) was added to 250 μl of 140 mM sodium propionate buffer (pH 6.7, 1% dimethyl sulfoxide in final concentration) containing each test compound dissolved in dimethyl sulfoxide, and the decrease in absorbance caused by the swelling of platelets was periodically measured using Hema-Tracer (manufactured by Nk).
The decreased absorbance ratio 20 seconds after the addition of platelet rich plasma was measured as the Na^+ /H^+ exchange activity, and the inhibitory activity of each test compound was expressed as relative activity when the action of 300 μM amiloride was defined as 100% inhibition.
In this case, each test result was evaluated from 50% inhibition concentration (IC50 value) by using probit methods.

[2] = system: male SD rats; set-up: species or system rat (SD); settings: rat, in vivo, iv, 100 mg/kg
[3] = system: male SD rats; set-up: species or system rat (SD); settings: rat, in vivo, iv, 10 mg/kg
[4] = background statement; cited from earlier work
[5] = system: Na^+ /H^+ exchange transport; settings: background statement, Circulation, 79, 1257 (1989); cited from earlier work

T1 sequence (P26431 whole entry): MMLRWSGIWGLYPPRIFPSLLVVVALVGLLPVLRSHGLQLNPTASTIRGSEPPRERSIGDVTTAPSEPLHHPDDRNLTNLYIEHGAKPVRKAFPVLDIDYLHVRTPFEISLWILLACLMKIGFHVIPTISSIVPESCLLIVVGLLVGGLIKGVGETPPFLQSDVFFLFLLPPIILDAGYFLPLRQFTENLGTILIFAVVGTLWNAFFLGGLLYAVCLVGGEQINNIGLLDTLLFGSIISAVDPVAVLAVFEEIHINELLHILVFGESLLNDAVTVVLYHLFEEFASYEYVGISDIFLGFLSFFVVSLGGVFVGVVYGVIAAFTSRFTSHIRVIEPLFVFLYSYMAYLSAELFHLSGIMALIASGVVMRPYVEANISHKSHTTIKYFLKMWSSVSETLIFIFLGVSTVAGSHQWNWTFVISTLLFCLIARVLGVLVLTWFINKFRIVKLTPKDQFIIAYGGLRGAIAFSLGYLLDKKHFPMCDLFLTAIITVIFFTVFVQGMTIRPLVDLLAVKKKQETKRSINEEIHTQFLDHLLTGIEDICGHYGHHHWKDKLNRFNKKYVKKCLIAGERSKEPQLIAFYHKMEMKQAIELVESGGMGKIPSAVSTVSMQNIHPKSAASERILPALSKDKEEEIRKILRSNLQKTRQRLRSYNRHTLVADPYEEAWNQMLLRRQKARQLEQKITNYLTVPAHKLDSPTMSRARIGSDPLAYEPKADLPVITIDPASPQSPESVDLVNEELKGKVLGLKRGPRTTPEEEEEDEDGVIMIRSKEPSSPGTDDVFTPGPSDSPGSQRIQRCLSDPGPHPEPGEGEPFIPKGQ

Row | pIC50 [1] | SMILES | also measured
1 | 6.00 to 7.00 | Cc1nc2c(cc1C(=O)N=C(N)N)CCCC2O (stereo not drawn) [Compound A, 8-Hydroxy-2-methyl-5,6,7,8-tetrahydrocyclohexa[b]pyridine-3-carbonylguanidine] | –
2 | ≥ 7.00 | Cc1nc2c(cc1C(=O)N=C(N)N)CC(C)CC2 (stereo not drawn) [Compound B, 2,6-Dimethyl-5,6,7,8-tetrahydrocyclohexa[b]pyridine-3-carbonylguanidine] | –
3 | 6.00 to 7.00 | Cc1nc2c(cc1C(=O)N=C(N)N)C(O)CCCC2 (stereo not drawn) [Compound D, 5-Hydroxy-2-methyl-6,7,8,9-tetrahydro-5H-cyclohepta[b]pyridine-3-carbonylguanidine] | –
4 | ≥ 7.00 | Cc1nc2c(cc1C(=O)N=C(N)N)CCCCC2C (stereo not drawn) [Compound E, 2,9-Dimethyl-6,7,8,9-tetrahydro-5H-cyclohepta[b]pyridine-3-carbonylguanidine] | –
5 | ≥ 7.00 | COC1CCCCc2cc(C(=O)N=C(N)N)c(C)nc21 (stereo not drawn) [Compound F, 9-Methoxy-2-methyl-6,7,8,9-tetrahydro-5H-cyclohepta[b]pyridine-3-carbonylguanidine] | –

More lines, now with the values behind:

Row | SMILES | pIC50 [1] | also measured
6 | CCc1nc2c(cc1C(=O)N=C(N)N)CCCCC2 [Compound C, 2-Ethyl-6,7,8,9-tetrahydro-5H-cyclohepta[b]pyridine-3-carbonylguanidine] | ≥ 7.00 | –
7 | COc1nc2c(cc1C(=O)N=C(N)N)CCCCC2 [Compound I, 2-Methoxy-6,7,8,9-tetrahydro-5H-cyclohepta[b]pyridine-3-carbonylguanidine] | ≤ 6.00 | –
8 | NC(N)=NC(=O)c1cc2c(nc1-c1cccnc1)CCCCC2 [Compound J, 2-(3-Pyridyl)-6,7,8,9-tetrahydro-5H-cyclohepta[b]pyridine-3-carbonylguanidine] | ≤ 6.00 | –
9 | Cc1nc2c(cc1C(=O)N=C(N)N)CCCC=C2 [Compound K, 2-Methyl-6,7-dihydro-5H-cyclohepta[b]pyridine-3-carbonylguanidine] | ≥ 7.00 | –
10 | NC(N)=NC(=O)c1cc2c(nc1Cl)CCCCC2 [Compound H, 2-Chloro-6,7,8,9-tetrahydro-5H-cyclohepta[b]pyridine-3-carbonylguanidine] | ≥ 7.00 | –
11 | Cc1nc2c(cc1C(=O)N=C(N)N)CCCC=C2 [maleic acid salt of the compound (K), 2-Methyl-6,7-dihydro-5H-cyclohepta[b]pyridine-3-carbonylguanidine maleate] | – | death cases [2]: no death cases were found; toxic changes attributable to the compound (K) [2]: no toxic changes attributable to the compound (K) were observed; death cases [3]: no death cases were found; toxic changes attributable to the compound (K) [3]: no toxic changes attributable to the compound (K) were observed
12 | N=C(N)NC(=O)c1nc(Cl)c(N)nc1N [amiloride] | – | accompanying actions [4]: accompanies hypotensive action and salt excretion action; anti-arrhythmic action [4]: weak; Na^+ /H^+ exchange transport inhibitory action [5]: has a Na^+ /H^+ exchange transport inhibitory action
13 | NC(N)=NC(=O)c1cc2c(nc1C(F)(F)F)CCCCC2 [Compound G, 2-Trifluoromethyl-6,7,8,9-tetrahydro-5H-cyclohepta[b]pyridine-3-carbonylguanidine] | 6.00 to 7.00 | –

Source: patent US6258829A, “Cycloalka[b]pyridine-3-carbonylguanidine derivatives, process for producing the same, and drugs containing the same” (priority 1997, dated 2001)
